# Measurements: patent US3982931A, “N,N-di-sec.butyl-benzamide herbicides” (priority 1967, dated 1976)
# Tests used:
# Assay type in all cases: in vivo
# [1] = tested on: amaranthus retroflexus L.; experiment: herbicidal activity, soil treatment one day after sowing
# [2] = tested on: artemisia vulgaris L.; experiment: as above
# [3] = tested on: echinocloa crus-galli R.S.; experiment: as above
# [4] = tested on: vicia sativa L.; experiment: as above
# Method in brief: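 Pre-emergence soil treatment one day after sowing; activity scored visually on a […] scale against untreated control, from slight difference (1) to no germination or total containment at emergence (4); intermediate activity recorded as both classes, preeminent value first.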
# [5] = tested on: solanum Lycopersicum L.; experiment: activity on agrarian species, soil treatment one day after sowing; conditions: 6 kg/ha
# Excerpt: The infesting species and the agrarian species have been indicated in Table 1 by letters, as follows:
# M = solanum Lycopersicum L.
# (§1) Method of evaluation of the results (of tests):
# (§2) 0 = no activity and no difference with respect to the control;
# (§3) 1 slight differences with respect to the control;
# (§4) 3 = considerable activity with damages that definitely impair the further development of most of the small plants; an activity degree already useful for practical purposes;
# (§5) 4 = maximum of activity with lack of germination or total containment of the small plants in the emerging stage.
# In the case of an intermediate activity between two classes of the scale, both values are recorded with the one which corresponds to the preeminent activity preceding. […]
# [6] = tested on: triticum vulgare L. (wheat); experiment: as above
# Method in brief: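 Pre-emergence soil treatment one day after sowing of wheat, product applied at 1, 3, 6, 8, 10, 12 and 14 kg/ha. Activity scored visually on a 0–4 scale relative to untreated control (0 = none, 4 = no germination/total containment); intermediate activity recorded as both values.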
# [7] = tested on: zea mais L. (corn); experiment: as above
# Method in brief: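 Pre-emergence soil application one day after sowing at 1, 3, 6, 8, 10, 12 and 14 kg/ha. Crop damage scored visually against untreated control on a 0–4 scale (0 = no effect, 4 = no germination or total containment at emergence); intermediate effects recorded with both scores.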
# [8] = tested on: Brassica napus L. colza; experiment: activity of PA 106 on useful species
# Excerpt: as §1, §2, §3, §4, §5
# (§6) In the case of an intermediate activity between two classes of the scale, both values are recorded with the one which corresponds to the preeminent activity preceding.
# (§7) TABLE 3 reports data on the herbicidal activity against infesting herbs, while TABLE 4 reports data concerning the activity on useful species of agricultural cultivations. These tables employ the criterion explained previously. The product was spread on the soil one day after sowing, in quantities of 1, 3, 6, 8, 10, 12 and 14 kg/ha.
# [9] = tested on: Brassica oleracea, L. (cabbage); experiment: activity of PA 106 on useful species
# Excerpt: as §1, §2, §3, §4, §5, §6, §7
# [10] = tested on: Hordeum vulgare L. (barley); experiment: activity of PA 106 on useful species
# Excerpt: as §1, §2, §3, §4, §5, §6, §7
# [11] = tested on: Soja Hispida L. (soya); experiment: activity of PA 106 on useful species
# Excerpt: as §1, §2, §3, §4, §5, §6, §7
compound,measurement,setting,value
"CCC(C)N(C(=O)c1ccc(Cl)c(Cl)c1)C(C)CC (stereo not drawn) [PA106, 3,4-dichloro-N,N-di-sec.butyl-benzamide]","herbicidal activity, Table 3",[1]; 1 kg/ha,0
same,"activity on A, 0-4 scale",[1]; 2 kg/ha,1
same,"herbicidal activity, Table 3",[1]; 3 kg/ha,1/2
same,"activity on A, 0-4 scale",[1]; 4 kg/ha,2
same,"activity on A, 0-4 scale",[1]; 6 kg/ha,3
same,"herbicidal activity, Table 3",[1]; 6 kg/ha,3
same,"herbicidal activity, Table 3",[1]; 8 kg/ha,4/3
same,"herbicidal activity, Table 3",[1]; 10 kg/ha,4
same,"herbicidal activity, Table 3",[1]; 12 kg/ha,4
same,"herbicidal activity, Table 3",[1]; 14 kg/ha,4
same,"herbicidal activity, Table 3",[2]; 1 kg/ha,0
same,"activity on B, 0-4 scale",[2]; 2 kg/ha,0-1
same,"herbicidal activity, Table 3",[2]; 3 kg/ha,1
same,"activity on B, 0-4 scale",[2]; 4 kg/ha,1-2
same,"activity on B, 0-4 scale",[2]; 6 kg/ha,3
same,"herbicidal activity, Table 3",[2]; 6 kg/ha,3
same,"herbicidal activity, Table 3",[2]; 8 kg/ha,3
same,"herbicidal activity, Table 3",[2]; 10 kg/ha,3
same,"herbicidal activity, Table 3",[2]; 12 kg/ha,4/3
same,"herbicidal activity, Table 3",[2]; 14 kg/ha,4
same,"herbicidal activity, Table 3",[3]; 1 kg/ha,0/1
same,"activity on D, 0-4 scale",[3]; 2 kg/ha,2
same,"herbicidal activity, Table 3",[3]; 3 kg/ha,3
same,"activity on D, 0-4 scale",[3]; 4 kg/ha,3-4
same,"activity on D, 0-4 scale",[3]; 6 kg/ha,4
same,"herbicidal activity, Table 3",[3]; 6 kg/ha,4
same,"herbicidal activity, Table 3",[3]; 8 kg/ha,4
same,"herbicidal activity, Table 3",[3]; 10 kg/ha,4
same,"herbicidal activity, Table 3",[3]; 12 kg/ha,4
same,"herbicidal activity, Table 3",[3]; 14 kg/ha,4
same,"activity on F, 0-4 scale",[4]; 2 kg/ha,0
same,"activity on F, 0-4 scale",[4]; 4 kg/ha,0
same,"activity on F, 0-4 scale",[4]; 6 kg/ha,0
same,"activity on M, 0-4 scale",[5],0
same,"activity on useful species, Table 4",[6]; 1 kg/ha,0
same,"activity on useful species, Table 4",[6]; 3 kg/ha,0
same,"activity on N, 0-4 scale",[6]; 6 kg/ha,0
same,"activity on useful species, Table 4",[6]; 6 kg/ha,0
same,"activity on useful species, Table 4",[6]; 8 kg/ha,0/1
same,"activity on useful species, Table 4",[6]; 10 kg/ha,0/1
same,"activity on useful species, Table 4",[6]; 12 kg/ha,1
same,"activity on useful species, Table 4",[6]; 14 kg/ha,1
same,"activity on useful species, Table 4",[7]; 1 kg/ha,0
same,"activity on useful species, Table 4",[7]; 3 kg/ha,0
same,"activity on O, 0-4 scale",[7]; 6 kg/ha,0
same,"activity on useful species, Table 4",[7]; 6 kg/ha,0
same,"activity on useful species, Table 4",[7]; 8 kg/ha,0
same,"activity on useful species, Table 4",[7]; 10 kg/ha,0
same,"activity on useful species, Table 4",[7]; 12 kg/ha,0/1
same,"activity on useful species, Table 4",[7]; 14 kg/ha,1
same,"activity on useful species, Table 4",[8]; 1 kg/ha,0
same,"activity on useful species, Table 4",[8]; 3 kg/ha,0
same,"activity on useful species, Table 4",[8]; 6 kg/ha,1
same,"activity on useful species, Table 4",[8]; 8 kg/ha,1/2
same,"activity on useful species, Table 4",[8]; 10 kg/ha,2/3
same,"activity on useful species, Table 4",[8]; 12 kg/ha,3
same,"activity on useful species, Table 4",[8]; 14 kg/ha,3
same,"activity on useful species, Table 4",[9]; 1 kg/ha,0
same,"activity on useful species, Table 4",[9]; 3 kg/ha,0
same,"activity on useful species, Table 4",[9]; 6 kg/ha,0/1
same,"activity on useful species, Table 4",[9]; 8 kg/ha,1
same,"activity on useful species, Table 4",[9]; 10 kg/ha,1/2
same,"activity on useful species, Table 4",[9]; 12 kg/ha,1/2
same,"activity on useful species, Table 4",[9]; 14 kg/ha,2
same,"activity on useful species, Table 4",[10]; 1 kg/ha,0
same,"activity on useful species, Table 4",[10]; 3 kg/ha,0
same,"activity on useful species, Table 4",[10]; 6 kg/ha,0
same,"activity on useful species, Table 4",[10]; 8 kg/ha,0
same,"activity on useful species, Table 4",[10]; 10 kg/ha,0/1
same,"activity on useful species, Table 4",[10]; 12 kg/ha,0/1
same,"activity on useful species, Table 4",[10]; 14 kg/ha,0/1
same,"activity on useful species, Table 4",[11]; 1 kg/ha,0
same,"activity on useful species, Table 4",[11]; 3 kg/ha,0
same,"activity on useful species, Table 4",[11]; 6 kg/ha,0
same,"activity on useful species, Table 4",[11]; 8 kg/ha,0
same,"activity on useful species, Table 4",[11]; 10 kg/ha,0/1
same,"activity on useful species, Table 4",[11]; 12 kg/ha,0/1
same,"activity on useful species, Table 4",[11]; 14 kg/ha,0/1
